From patent publication US7763426B2, “Probes and methods for detection of Escheridia coli and antibiotic resistance” (priority 2004, dated 2010)
“Also recorded” adds a separate entry of the source. {Fluorescein} = fluorescein label (binding site for anti-fluorescein Fab-HRP); {Biotin} = biotin (capture probe anchor)

How the values were obtained:
[1] = tested on: 16S rRNA in lysates of uropathogens; experiment: Species specificity of uropathogen probe pairs with the electrochemical sensor array (Example 1); format: binding; conditions: probe pairs of Table 1
[2] = tested on: bacterial 16S rRNA; experiment: Amperometric detection of bacterial 16S rRNA, statements over several targets (Examples 2, 3); format: binding; conditions: previous studies; no gap between hybridization sites
Description: Sensor characterization and surface functional layer preparation. Microfabricated electrochemical sensor arrays with an alkanethiolate self-assembled monolayer (SAM) were obtained from GeneFluidics (Monterey Park, Calif.). SAM integrity was confirmed by cyclic voltammetry (CV) (1) using a 16-channel potentiostat (GeneFluidics). After CV characterization, sensor arrays were washed and dried. Washing steps were carried out by applying a stream of deionized H2O to the sensor surface for approximately 2-3 sec followed by 5 sec of drying under a stream of nitrogen. To functionalize the sensor surface, 2.5 μl of 0.5 U/ml streptavidin (Calbiochem, San Diego, Calif.) in 100 mM phosphate buffered saline, pH 7.4 was added to the alkanethiol activated sensors, incubated for 10 min at room temperature and washed off. Biotinylated capture probes (2.5 μl, 1 μM in GeneFluidics' Probe Diluent) were added to the streptavidin-coated sensors. […]
Amperometric Detection of bacterial 16S rRNA. […] Amperometric current vs. time was measured using a multichannel potentiostat (GeneFluidics). The voltage was fixed at −200 mV (vs. reference), and the electroreduction current was measured at 60 sec after the HRP redox reaction reached steady state. All samples were analyzed in duplicate. […] Positive signals are determined by comparing the signals with the background using paired T test. […]

UNI: Universal Bacterial probe pair: capture 797 (27 mer) SEQ ID NO: 13, detector 766 (31 mer) SEQ ID NO: 14 (DNA 1 CATCGTTTACGGCGTGGACTACCAGGG; DNA 2 TATCTAATCCTGTTTGCTCCCCACGCTTTCG; DNA 1: DNA, 5' {Biotin}, backbone and methylation of C not given here; DNA 2: DNA, 5' {Fluorescein}, backbone and methylation of C not given here)
Species detected [1]: Cf, Ea, Ec, Ef, El, Eo, Ko, Kp,; also recorded: Mm, Pa, Pm, Ss, Sa
Species not detected [1]: None
higher signals than the species-specific probes with 6 bp gap [2]: 1.5-4 fold
